Data published in US4505914A, “Pharmaceutical for the treatment of sleep disorders” (Merckle GmbH, priority 1982, dated 1985).
Where “and” joins values, the source holds several entries; their conditions need not be identical. Equal entries are not always repeated.

Assays:
male NMRJ mice [1] = assay: Sleeping time prolongation under the influence of cinnarizine and flunarizine (ED50); type: in vivo, mouse; conditions: for Effect on the action of barbiturates: in words; for ED50: sleeping time increased by 50%
Description: (§1) A typical representative from the group of barbiturates with long action (phenobarbital), with short to average action (cyclobarbital-calcium) as well as ultra short action (hexobarbital) as well as a combination of two barbiturates (cyclobarbital-calcium+hexobarbital) was applied orally in graduated doses.
Determination of the sleeping time prolongation under the influence of […]

male NMR.tau. mice [2] = assay: Onset of effect (beginning of the excitation stage); type: in vivo, mouse
Procedure: (§2) As a criterium for the onset of the effect, the beginning of the excitation stage was measured. For the optimum effect, the beginning of the sleep phase was tested every 10 minutes by the tail and corneal reflex (according to Irvin) according to the following designations:
(§3) Sleeping Time, Onset of Effect and Optium Effect under the influence of […]

male NMR.tau. mice [3] = assay: Sleep duration, prolongation of sleeping time and ED50 under the influence of cinnarizine (Table 3); type: in vivo, mouse
Description: as §1

tail and corneal reflex = assay: Optimum effect (tail and corneal reflex according to Irvin); type: in vivo, mouse; parameters: key to Optimum Reflex: 0: normal reaction; -1: slightly lessened; -2: clearly lessened; -3: highly lessened; -4: complete lack of reaction
Procedure: as §2
-4 = complete lack of reaction
as §3

male NMRJ mice [4] = assay: Determination of the oral ED50 of the barbiturates (sleep time); type: in vivo, mouse; conditions: for ED50: Mus musculus, 0.5 h, oral, dose required for a 30-minute sleeping period
Description: as §1
Determination of the oral ED50 of
the barbiturates using 10 male NMR.tau. mice/group

[5] = literature, in words; cited from earlier work
[6] = in words; cited from earlier work
[7] = literature, in words; cited from earlier work; remark: listed apart in the source
[8] = cinnarizine 0.50 + hexobarbital 710 mg/kg
[9] = cinnarizine 0.75 + hexobarbital 710 mg/kg
[10] = cinnarizine 1.0 + cyclobarbital calcium 239 mg/kg
[11] = cinnarizine 1.0 + cyclobarbital calcium + hexobarbital (40 + 30) 225 mg/kg
[12] = cinnarizine 1.00 + hexobarbital 710 mg/kg
[13] = cinnarizine 2.5 + cyclobarbital calcium 239 mg/kg
[14] = cinnarizine 2.5 + cyclobarbital calcium + hexobarbital (40 + 30) 225 mg/kg
[15] = cinnarizine 5.0 + cyclobarbital calcium 239 mg/kg
[16] = cinnarizine 5.0 + cyclobarbital calcium + hexobarbital (40 + 30) 225 mg/kg
[17] = cyclobarbital calcium 239 mg/kg alone (C)
[18] = hexobarbital 710 mg/kg alone (C)

Compound: C(=C\c1ccccc1)/CN1CCN(C(c2ccccc2)c2ccccc2)CC1 [Cinnarizine, 1-benzhydryl-4-trans-cinnamylpiperazine]
- Sleep Time (male NMRJ mice [1]; cinnarizine 0.5 mg/kg + hexobarbital 710 mg/kg): 35.37 min
- Sleep Time (male NMRJ mice [1]; cinnarizine 1.0 mg/kg + cyclobarbital-Ca 239 mg/kg): 24.34 min
- Sleep Time (male NMRJ mice [1]; cinnarizine 1.0 mg/kg + cyclobarbital-Ca + hexobarbital (40 + 30) 225 mg/kg): 31.09 min
- Sleep Time (male NMRJ mice [1]; cinnarizine 1.0 mg/kg + hexobarbital 710 mg/kg, **p <0.01): 65.58 min
- Sleep Time (male NMRJ mice [1]; cinnarizine 1 mg/kg + phenobarbital 256 mg/kg): 25.78 min
- Sleep Time (male NMRJ mice [1]; cinnarizine 2.5 mg/kg + cyclobarbital-Ca 239 mg/kg, *p <0.05): 41.43 min
- Sleep Time (male NMRJ mice [1]; cinnarizine 2.5 mg/kg + cyclobarbital-Ca + hexobarbital (40 + 30) 225 mg/kg): 37.92 min
- Sleep Time (male NMRJ mice [1]; cinnarizine 5.0 mg/kg + cyclobarbital-Ca 239 mg/kg, **p <0.01): 49.99 min
- Sleep Time (male NMRJ mice [1]; cinnarizine 5.0 mg/kg + cyclobarbital-Ca + hexobarbital (40 + 30) 225 mg/kg, *p <0.05): 53.22 min
- Sleep Time (male NMRJ mice [1]; cinnarizine 5 mg/kg + phenobarbital 256 mg/kg): 32.85 min
- Sleep Time (male NMRJ mice [1]; cinnarizine 10 mg/kg + phenobarbital 256 mg/kg, *p <0.05): 43.55 min
- Sleep Time (male NMRJ mice [1]; cinnarizine […] + hexobarbital 710 mg/kg, **p <0.01): 43.93 min
- Effect on the action of barbiturates (male NMRJ mice [1]): potentiating or enhancing effect
- Onset p.a. % of control (male NMR.tau. mice [2]; [8]): 86.2%
- Onset x (male NMR.tau. mice [2]; [8]): 2.49 min
- Onset p.a. % of control (male NMR.tau. mice [2]; [9]): 76.8%
- Onset x (male NMR.tau. mice [2]; [9]): 2.22 min
- Onset p.a. % of control (male NMR.tau. mice [2]; [10]): 51.3%
- Onset x (male NMR.tau. mice [2]; [10]): 2.19 min
- Onset p.a. % of control (male NMR.tau. mice [2]; [11]): 94.8%
- Onset x (male NMR.tau. mice [2]; [11]): 1.09 min
- Onset p.a. % of control (male NMR.tau. mice [2]; [12]): 55.0%
- Onset x (male NMR.tau. mice [2]; [12]): 1.59 min
- Onset p.a. % of control (male NMR.tau. mice [2]; [13]): 54.1%
- Onset x (male NMR.tau. mice [2]; [13]): 2.31 min
- Onset p.a. % of control (male NMR.tau. mice [2]; [14]): 102.6%
- Onset x (male NMR.tau. mice [2]; [14]): 1.18 min
- Onset p.a. % of control (male NMR.tau. mice [2]; [15]): 59.5%
- Onset x (male NMR.tau. mice [2]; [15]): 2.54 min
- Onset p.a. % of control (male NMR.tau. mice [2]; [16]): 102.6%
- Onset x (male NMR.tau. mice [2]; [16]): 1.18 min
- Sleep Time (male NMR.tau. mice [3]; [8]): 40.66 min
- Sleep Time % of control (male NMR.tau. mice [3]; [8]): 113.4%
- Sleep Time (male NMR.tau. mice [3]; [9]): 42.38 min
- Sleep Time % of control (male NMR.tau. mice [3]; [9]): 118.2%
- Sleep Time (male NMR.tau. mice [3]; [10]): 26.21 min
- Sleep Time % of control (male NMR.tau. mice [3]; [10]): 106.4%
- Sleep Time (male NMR.tau. mice [3]; [11]): 32.42 min
- Sleep Time % of control (male NMR.tau. mice [3]; [11]): 92.6%
- Sleep Time (male NMR.tau. mice [3]; [12]): 76.14 min
- Sleep Time % of control (male NMR.tau. mice [3]; [12]): 212.3%
- Sleep Time (male NMR.tau. mice [3]; [13]): 31.08 min
- Sleep Time % of control (male NMR.tau. mice [3]; [13]): 126.1%
- Sleep Time (male NMR.tau. mice [3]; [14]): 38.65 min
- Sleep Time % of control (male NMR.tau. mice [3]; [14]): 110.4%
- Sleep Time (male NMR.tau. mice [3]; [15]): 42.49 min
- Sleep Time % of control (male NMR.tau. mice [3]; [15]): 172.4%
- Sleep Time (male NMR.tau. mice [3]; [16]): 54.82 min
- Sleep Time % of control (male NMR.tau. mice [3]; [16]): 156.6%
- Optimum % of control (tail and corneal reflex; [8]): 278.2-336.0%
- Optimum Min. (tail and corneal reflex; [8]): 10 to 30 min
- Optimum Reflex (tail and corneal reflex; [8]): -3
- Optimum Min. (tail and corneal reflex; [9]): 10 to 20 min
- Optimum Reflex (tail and corneal reflex; [9]): -3
- Optimum % of control (tail and corneal reflex; [10]): 166.7%
- Optimum Min. (tail and corneal reflex; [10]): 10 min
- Optimum Reflex (tail and corneal reflex; [10]): -1
- Optimum % of control (tail and corneal reflex; [11]): 156.3-183.3%
- Optimum Min. (tail and corneal reflex; [11]): 10 to 20 min
- Optimum Reflex (tail and corneal reflex; [11]): -2
- Optimum % of control (tail and corneal reflex; [12]): 300.8-407.0%
- Optimum Min. (tail and corneal reflex; [12]): 10 to 30 min
- Optimum Reflex (tail and corneal reflex; [12]): -4
- Optimum % of control (tail and corneal reflex; [13]): 350.0%
- Optimum Min. (tail and corneal reflex; [13]): 10 to 30 min
- Optimum Reflex (tail and corneal reflex; [13]): -1
- Optimum % of control (tail and corneal reflex; [14]): 138.8-177.5%
- Optimum Min. (tail and corneal reflex; [14]): 10 to 20 min
- Optimum Reflex (tail and corneal reflex; [14]): -2
- Optimum % of control (tail and corneal reflex; [15]): 350.0%
- Optimum Min. (tail and corneal reflex; [15]): 10 min
- Optimum Reflex (tail and corneal reflex; [15]): -2
- Optimum % of control (tail and corneal reflex; [16]): 175.0-233.0%
- Optimum Min. (tail and corneal reflex; [16]): 10 to 40 min

Compound: CCC1(C2=CCCCC2)C(=O)NC(=O)NC1=O [Cyclobarbital-Ca]
- Sleep Time (male NMRJ mice [1]; cyclobarbital-Ca 239 mg/kg alone, cinnarizine series): 27.45 min
- Sleep Time (male NMRJ mice [1]; cyclobarbital-Ca 239 mg/kg alone, flunarizine series): 32.03 min
- Onset p.a. % of control (male NMR.tau. mice [2]; [17]): 100.0%
- Onset x (male NMR.tau. mice [2]; [17]): 4.27 min
- Effect on onset, in words (male NMR.tau. mice [2]; mouse, in vivo): marked effect
- Sleep Time (male NMR.tau. mice [3]; [17]): 24.64 min
- Sleep Time % of control (male NMR.tau. mice [3]; [17]): 100.0%
- Sleep Time (male NMRJ mice [4]; 200 mg/kg oral): 14.01 min
- Sleep Time (male NMRJ mice [4]; 250 mg/kg oral): 34.38 min
- Sleep Time (male NMRJ mice [4]; 300 mg/kg oral): 90 min
- Sleep Time, individual animals (male NMRJ mice [4]; 300 mg/kg oral, footnote 1): 90 min and 60.5 min and 53.3 min
- ED50 (male NMRJ mice [4]): 239 mg/kg
- Optimum % of control (tail and corneal reflex; [17]): 100.0%
- Optimum Min. (tail and corneal reflex; [17]): 10 min

Compound: OCC(S)CS (stereo not shown) [Dimercaprol (BAL)]
- Decomposition of pentobarbital [5]: checks the decomposition of pentobarbital

Compound: Fc1ccc(C(c2ccc(F)cc2)N2CCN(C/C=C/c3ccccc3)CC2)cc1 [Flunarizine]
- Sleep Time (male NMRJ mice [1]; flunarizine 0.25 mg/kg + cyclobarbital-Ca 239 mg/kg): 39.54 min
- Sleep Time (male NMRJ mice [1]; flunarizine 1.0 mg/kg + cyclobarbital-Ca 239 mg/kg, ***p <0.001): 62.67 min
- Sleep Time (male NMRJ mice [1]; flunarizine 1.0 mg/kg + hexobarbital 710 mg/kg): 40.44 min
- Sleep Time (male NMRJ mice [1]; flunarizine 2.5 mg/kg + cyclobarbital-Ca 239 mg/kg, ***p <0.001): 75.15 min
- Sleep Time (male NMRJ mice [1]; flunarizine 2.5 mg/kg + cyclobarbital-Ca + hexobarbital (40 + 30) 225 mg/kg): 33.45 min
- Sleep Time (male NMRJ mice [1]; flunarizine 2.5 mg/kg + hexobarbital 710 mg/kg): 45.17 min
- Sleep Time (male NMRJ mice [1]; flunarizine 5.0 mg/kg + hexobarbital 710 mg/kg, ***p <0.001): 94.51 min
- Sleep Time (male NMRJ mice [1]; flunarizine 10.0 mg/kg + cyclobarbital-Ca + hexobarbital (40 + 30) 225 mg/kg, **p <0.01): 56.49 min
- Sleep Time (male NMRJ mice [1]; flunarizine 15.0 mg/kg + cyclobarbital-Ca + hexobarbital (40 + 30) 225 mg/kg, ***p <0.001): 65.12 min
- ED50 (male NMRJ mice [1]; flunarizine with cyclobarbital-Ca 239 mg/kg, range (0.29-0.45)): 0.38 mg/kg
- ED50 (male NMRJ mice [1]; flunarizine with cyclobarbital-Ca + hexobarbital (40 + 30) 225 mg/kg, range (6.85-8.30)): 7.52 mg/kg
- ED50 (male NMRJ mice [1]; flunarizine with hexobarbital 710 mg/kg, probit analysis): 2.94 mg/kg
- Dosage to obtain an ED50 with the combination of both barbiturates (male NMRJ mice [1]; in comparison with the individual barbiturates): higher dosages
- Effect on the action of barbiturates (male NMRJ mice [1]): potentiating or enhancing effect
- Potency for cyclobarbital-calcium (male NMRJ mice [1]; with cyclobarbital-calcium): highest potency
- Antihistaminic properties [6]: only weak antihistaminic properties

Compound: CN1C(=O)NC(=O)C(C)(C2=CCCCC2)C1=O (stereo not shown) [Hexobarbital]
- Sleep Time (male NMRJ mice [1]; hexobarbital 710 mg/kg alone, cinnarizine series): 32.74 min
- Sleep Time (male NMRJ mice [1]; hexobarbital 710 mg/kg alone, flunarizine series): 38.78 min
- Onset p.a. % of control (male NMR.tau. mice [2]; [18]): 100.0%
- Onset x (male NMR.tau. mice [2]; [18]): 2.89 min
- Sleep Time (male NMR.tau. mice [3]; [18]): 35.86 min
- Sleep Time % of control (male NMR.tau. mice [3]; [18]): 100.0%
- Sleep Time (male NMRJ mice [4]; 250 mg/kg oral): 3.03 min
- Sleep Time (male NMRJ mice [4]; 500 mg/kg oral): 16.52 min
- Sleep Time (male NMRJ mice [4]; 750 mg/kg oral): 32.53 min
- Sleep Time (male NMRJ mice [4]; 1000 mg/kg oral): 56.08 min
- ED50 (male NMRJ mice [4]): 710 mg/kg
- Optimum % of control (tail and corneal reflex; [18]): 100.0%
- Optimum Min. (tail and corneal reflex; [18]): 10 to 20 min
- Optimum Reflex (tail and corneal reflex; [18]): -1

Compound: CCCC(C)(COC(N)=O)COC(N)=O [Meprobamate]
- Effect on barbiturates [7]: pontentiating or enhancing effect on barbiturates

Compound: CCC1(c2ccccc2)C(=O)NC(=O)NC1=O [Phenobarbital]
- Sleep Time (male NMRJ mice [1]; phenobarbital 256 mg/kg alone, cinnarizine series): 22.34 min
- Sleep Time (male NMRJ mice [4]; 200 mg/kg oral): 4.29 min
- Sleep Time (male NMRJ mice [4]; 250 mg/kg oral): 27.52 min
- Sleep Time (male NMRJ mice [4]; 300 mg/kg oral): 49.06 min
- Sleep Time (male NMRJ mice [4]; 400 mg/kg oral): 49.28 min
- ED50 (male NMRJ mice [4]): 256 mg/kg

Compound: tocopherol
- Effect on barbiturates [7]: increases the effect of barbiturates
